# Marks after values point to notes of the source that are not given here.
# Experiments:
# [1] = system: microtubules in NCI-H460 cells; assay: Immunofluorescence assay of microtubules (β-tubulin/DAPI staining); type: cell-based, human; conditions: 2 nM, 24 h
# Description: To further explore the effect of phenylahistin derivatives 1 and 15p on microtubules in cancer cells, an immunofluorescence assay was performed. […] The inhibitory activities were consistent with the previously shown anti-proliferative activities.
# NCI-H460 cells were seeded in 24-well plate (with coverslips plated) at the density of 5 × 10^4 cells. […] Then, cells were fixed with 4% cold paraformaldehyde at 4 °C for 15 min and then permeabilized in 0.05% Triton X-100 for 10 min. The cells were blocked in 1% BSA for 30 min. Microtubules were detected by incubation with a monoclonal anti-β-tubulin (β-tubulin antibody was obtained from Servicebio, Wuhan, China.) at 4 °C for 12 h. Subsequently, the cells were washed with PBS and incubated with a FITC-conjugated anti-mouse IgG antibody. Nuclei were stained with DAPI (G1012, Servicebio, Wuhan, China). The coverslips were visualized under fluorescence microscope (Nikon Eclipse C1, Nikon, Japan) and an image-forming system (Nikon DS-U3, Nikon, Tokyo, Japan).
# [2] = system: colon cancer HT-29 cell line; assay: MTT cytotoxicity assay, colon cancer HT-29 cell line; type: cell-based; conditions: Homo sapiens, 72 h, mean ± SD
# Description: (§1) Human cancer cell lines (lung cancer NCI-H460 cell line, pancreatic cancer BxPC-3 cell line, colon cancer HT-29 cell line) were purchased from American Type Cell Culture Collection (ATCC, Manassas, VA, USA). Cells were maintained in RPMI-1640 medium supplemented with 10% (v/v) heat-inactivated fetal bovine serum, penicillin-streptomycin (100 U/mL-100 […]) at 37 °C in a humidified atmosphere (5% CO2–95% air). All tested derivatives were dissolved in 100% cell culture grade DMSO. Cells (3 × 10^3 per well) were seeded in 96-well plates for 24 h. Then, cells were treated with the tested compounds in six concentrations for 72 h. Cell viability was assessed by MTT assay. The absorbance at 490 nm was measured with a Microplate Reader (Molecular Devices, Silicon Valley, CA, USA). The data were analyzed by Origin 8.5 (OriginLab, Northampton, MA, USA).
# caspase-3 = assay: Western blotting of caspase-3 expression; type: cell-based
# Description: Western blot was performed as previously described with antibody caspase-3 (1:1000) (WB0177/WB0176) or GAPDH (1:3000) (WB0197/WB0196, Shanghai Wei-Ao Biotechnology Co., Shanghai, China). Densities of the Western blotting bands were quantified using ImageJ 19.0. (NIH, Bethesda, MD, USA).
# [3] = system: H22 hepatoma carcinoma cells transplanted tumor; assay: H22 subcutaneous transplanted tumor model, intravenous administration; conditions: for Tumor Volume (D15): 14 consecutive days; for Tumor Volume (D1): D1 (baseline), mean ± SD; for Tumor Weight: excised at end of administration; for IR (tumor weight inhibition rate): IR = (1 − TWt/TWc) × 100%
# Description: The anticancer effect of the compound 15p was further evaluated against H22 tumor-bearing mice models by intravenous injection at doses of 2 mg/kg, or 4 mg/kg, two or three times a week, and for 14 consecutive days. Docetaxel (10 mg/kg), plinabulin (4 mg/kg), and cyclophosphamide (20 mg/kg) were used as the positive controls.
# Balb/c mice (4–6 weeks old, 16–18 g) were purchased from Shanghai Sippr-BK laboratory animal Co. Ltd. The animal study protocol was approved by Institutional Review Board of Science and Technology Division of Linyi University (review opinion on behalf of the Ethics Committee) (The protocol code is LYU20220107, provided on 10 March 2022). H22 cells were grown in RPMI-1640 midium supplemented with 10% fetal bovine serum, and maintained at 37 °C in humidified 5% CO2. Cells were passaged when they reached 70–80% confluence. Viable H22 cells (1 × 10^7 cells/0.2 ml 0.9% sodium chloride) were injected into the peritoneal cavity of BALB/C mice to trigger ascitic cell growth. Later, cells were harvested and suspended. H22 cancer cells (2 × 10^7 cells/0.1 ml 0.9% sodium chloride cells) were subcutaneously injected into the right flank of each mouse. After implantation, the tumor size was measured with an electronic caliper twice a week, and the tumor volume was calculated according to the following formula: tumor volume (mm^3) = 0.5 × length × width^2. When the tumor volume reached about 130 mm^3, the xenograft tumor-bearing BALB/C mice were randomly placed into six groups at 10 mice per group: vehicle, plinabulin (4 mg/kg), 15p ([…]), 15p ([…]), cyclophosphamide (20 mg/kg) and docetaxel (10 mg/kg) groups. Docetaxel, plinabulin, and cyclophosphamide were chosen as positive control drug. The reference compound docetaxel and cyclophosphamide were completely dissolved in isotonic saline. […] The solution of compound 15p was diluted with the concentrated solution and in isotonic saline at a calculated ratio. The solutions of plinabulin were made up according to similar methods. The mice received intravenous administration (iv) every two or three days for consecutive 14 days. The tumor volumes and the body weights were recorded every two or three days after treatment. At the end of the administration period, the animals were euthanized by dislocation, and the tumor bulks were peeled off conforming to the Guide for the Animal use and Management of Shanghai Medicilon Biological Medicine Co. Ltd. The tumor volume was calculated according to the Principles of Non-clinical Research Techniques for Anti-tumor Drugs of Cytotoxic Drugs by China Food and Drug Administration.
# [4] = Plasma stability in vitro; type: in vitro ADME, wistar rats; conditions: 10 μmol/L, 37 °C, up to 120 min
# Description: Compounds 15p. 15p were weighed and dissolved in DMSO to prepare a master batch with a concentration of 1 mg/mL. The plasma was obtained from wistar male rats, and stored at −20 °C for pending use. The 10 μmol/L of the sample solution to be tested was vortexed and mixed, and rapidly incubated in a 37 °C water bath shaker. The 100 μL of the incubation system was removed at 0 min, 5 min, 10 min, 20 min, 40 min, 60 min, 90 min, and 120 min of the reaction, respectively. The remaining amount of compound was detected (note: each sample was operated three times in parallel). The concentrations of the samples to be measured (15p) in rat plasma were detected by HPLC-MS/MS, and the experimental data were processed and plotted using the computer programs Microsoft Excel (Microsoft 97–2003, Redmond, Washington, DC, USA) and Origin 8.5 (OriginLab, Northampton, MA, USA).
# [5] = system: pancreatic cancer BxPC-3 cell line; assay: MTT cytotoxicity assay, pancreatic cancer BxPC-3 cell line; type: cell-based; conditions: Homo sapiens, 72 h, mean ± SD
# Description: as §1
# [6] = 2 mg/kg iv, listed as Compound 15p
# [7] = 4 mg/kg iv, listed as Compound 15p
smiles,measurement,setting,value
C=CCn1cnc(/C=c2\[nH]c(=O)/c(=C/c3cccc(C(=O)c4ccc(F)cc4)c3)[nH]c2=O)c1C(C)C [15p],Effect on microtubule networks,[1],microtubule networks were damaged
same,IC50,[2],0.67 ± 0.064 nM
same,Expression of caspase-3 vs control group and plinabulin group,caspase-3,significantly higher
same,Upregulation of caspase-3,caspase-3; 10 nM,strongest upregulation of caspase-3
same,Tumor Volume (D15),[3]; 2 mg/kg iv,1453.6 mm^3
same,Tumor Volume (D15),[3]; [6],1453.6 ± 909.5 mm^3
same,Tumor Volume (D1),[3]; 2 mg/kg iv,103.7 ± 29.99 mm^3
same,Tumor Weight,[3]; 2 mg/kg iv,0.82 g
same,Tumor Weight,[3]; [6],0.82 ± 0.47 g
same,IR (tumor weight inhibition rate),[3]; 2 mg/kg iv,27.6%
same,Tumor Volume (D15),[3]; 4 mg/kg iv,674.5 mm^3
same,Tumor Volume (D15),[3]; [7],674.5 ± 274.0* mm^3
same,Tumor Volume (D1),[3]; 4 mg/kg iv,102.2 ± 28.62 mm^3
same,Tumor Weight,[3]; 4 mg/kg iv,0.39 g
same,Tumor Weight,[3]; [7],0.39 ± 0.22 g
same,IR (tumor weight inhibition rate),[3]; 4 mg/kg iv,65%
same,IR (tumor weight inhibition rate),[3]; [7],65.2%
same,Plasma stability,[4],very stable
same,IC50,[5],0.81 ± 0.02 nM
